Test results taken from patent publication US20240216369A1, “THE USE OF A SPLICING MODULATOR FOR A TREATMENT SLOWING PROGRESSION OF HUNTINGTON'S DISEASE” (Novartis AG, priority 2019, published 2024).

What was measured:
tHTT = experiment: Mutant and total HTT multiplex HTRF assay in Q48 HTT human embryonic stem cell line: tHTT; format: cell-based; settings: Q48 HTT hESC, 48 hours
Protocol: (§1) The multiplex assay is performed in human embryonic stem cells (hESCs) which have been derived by Genea Biocells from human blastocysts of HD donors. Cells are plated at a density of 10,000 cells/well into 384-well collagen coated plates and left to adhere for 24 hours, compounds 1 to 82 are then added to cells and incubated for 48 hours (37° C., 5% CO2), cells are then lysed and the contents split into a black 384-well plate.
(§2) The black plates have a combination of HTRF labeled monoclonal antibodies added which recognize discrete areas of the HTT protein, the 2B7-Tb “donor” antibody (0.2 ng/well) recognizes a sequence at the N-terminus of the protein, an MW1-Alexa488 “acceptor 1” antibody (30 ng/well) recognizes an area in the polyQ region, whereas a MAB2166-d2 “acceptor 2” antibody (6 ng/well) recognizes a sequence beyond the polyQ region. The 2B7 antibody was obtained from Coriell (CH02024), the MW1 antibody from Millipore (MABN2427), and the MAB2166 antibody from Millipore (1HU-4C8).
(§3) These detection reagents are incubated with the cell lysate at room temperature for 4-6 hours before having their fluorescence quantified at 615 nm (donor) and 535 nm and 665 nm (acceptor 1 and 2 respectively). The donor/acceptor ratio between these signals indicates the relative quantities of mHTT and tHTT proteins. As shown in the Table 1, compounds 1 to 82 as described therein and in Table 2, had the following pIC50 values.

mHTT = experiment: Mutant and total HTT multiplex HTRF assay in Q48 HTT human embryonic stem cell line: mHTT; format: cell-based; settings: Q48 HTT hESC, 48 hours
Protocol: as §1, §2, §3

Structure (SMILES): CN(c1ccc(-c2ccc(-c3cn[nH]c3)cc2O)nn1)C1CC(C)(C)NC(C)(C)C1 [Compound 1, 2-(6-(methyl(2,2,6,6-tetramethylpiperidin-4-yl)amino)pyridazin-3-yl)-5-(1H-pyrazol-4-yl)phenol]
- tHTT pIC50 (tHTT): 7.8065
- Rating (based on mHTT potency) (mHTT): ***** (a pIC50 value above 7.5 is indicated by five stars (*****))
- mHTT pIC50 (mHTT): 7.75

Structure (SMILES): CN(c1ccc(-c2cc3c(=O)n(C)ccc3cc2O)nn1)C1CC(C)(C)NC(C)(C)C1 [Compound 2, 6-hydroxy-2-methyl-7-(6-(methyl(2,2,6,6-tetramethylpiperidin-4-yl)amino)pyridazin-3-yl)isoquinolin-1(2H)-one]
- tHTT pIC50 (tHTT): 7.6555
- Rating (based on mHTT potency) (mHTT): ***** (a pIC50 value above 7.5 is indicated by five stars (*****))
- mHTT pIC50 (mHTT): 7.73

Structure (SMILES): CN(c1ccc(-c2ccc(-c3cn[nH]c3)cc2O)nn1)[C@H]1C[C@]2(C)CC[C@](C)(C1)N2 [Compound 3, 2-(6-(((1R,5S)-1,5-dimethyl-8-azabicyclo[3.2.1]octan-3-yl)(methyl)amino)pyridazin-3-yl)-5-(1H-pyrazol-4-yl)phenol]
- tHTT pIC50 (tHTT): 7.609
- Rating (based on mHTT potency) (mHTT): ***** (a pIC50 value above 7.5 is indicated by five stars (*****))
- mHTT pIC50 (mHTT): 7.717

Structure (SMILES): CN(c1ccc(-c2ccc(-n3ccc(N)n3)cc2O)nn1)C1CC(C)(C)NC(C)(C)C1 [Compound 4, 5-(3-amino-1H-pyrazol-1-yl)-2-(6-(methyl(2,2,6,6-tetramethylpiperidin-4-yl)amino)pyridazin-3-yl)phenol]
- tHTT pIC50 (tHTT): 7.5845
- Rating (based on mHTT potency) (mHTT): ***** (a pIC50 value above 7.5 is indicated by five stars (*****))
- mHTT pIC50 (mHTT): 7.6

Structure (SMILES): CN(c1ccc(-c2ccc(-c3ccn(C)c(=O)c3)cc2O)nn1)C1CC(C)(C)NC(C)(C)C1 [Compound 5, 4-(3-hydroxy-4-(6-(methyl(2,2,6,6-tetramethylpiperidin-4-yl)amino)pyridazin-3-yl)phenyl)-1-methylpyridin-2(1H)-one]
- tHTT pIC50 (tHTT): 7.5935
- Rating (based on mHTT potency) (mHTT): ***** (a pIC50 value above 7.5 is indicated by five stars (*****))
- mHTT pIC50 (mHTT): 7.591

Structure (SMILES): CN(c1nnc(-c2ccc(-c3ccc(=O)n(C)c3)cc2O)s1)C1CC(C)(C)NC(C)(C)C1 [Compound 6, 5-(3-hydroxy-4-(5-(methyl(2,2,6,6-tetramethylpiperidin-4-yl)amino)-1,3,4-thiadiazol-2-yl)phenyl)-1-methylpyridin-2(1H)-one]
- tHTT pIC50 (tHTT): 7.493
- Rating (based on mHTT potency) (mHTT): ***** (a pIC50 value above 7.5 is indicated by five stars (*****))
- mHTT pIC50 (mHTT): 7.585

Structure (SMILES): CC1(C)CC(Oc2ccc(-c3c(O)cc(-c4cn[nH]c4)cc3F)nn2)CC(C)(C)N1 [Compound 7, 3-fluoro-5-(1H-pyrazol-4-yl)-2-(6-((2,2,6,6-tetramethylpiperidin-4-yl)oxy)pyridazin-3-yl)phenol]
- tHTT pIC50 (tHTT): 7.51
- Rating (based on mHTT potency) (mHTT): ***** (a pIC50 value above 7.5 is indicated by five stars (*****))
- mHTT pIC50 (mHTT): 7.5265

Structure (SMILES): CN(c1ccc(-c2ccc(-c3ccnc(O)c3)cc2O)nn1)C1CC(C)(C)NC(C)(C)C1 [Compound 8, 4-(3-hydroxy-4-(6-(methyl(2,2,6,6-tetramethylpiperidin-4-yl)amino)pyridazin-3-yl)phenyl)pyridin-2-ol]
- tHTT pIC50 (tHTT): 7.4435
- Rating (based on mHTT potency) (mHTT): **** (a pIC50 value between 7.0 and 7.5 is indicated by four stars (****))
- mHTT pIC50 (mHTT): 7.4855

Structure (SMILES): CN(c1nnc(-c2c(O)cc(-c3cn[nH]c3)cc2Cl)s1)C1CC(C)(C)NC(C)(C)C1 [Compound 9, 3-chloro-2-(5-(methyl(2,2,6,6-tetramethylpiperidin-4-yl)amino)-1,3,4-thiadiazol-2-yl)-5-(1H-pyrazol-4-yl)phenol]
- tHTT pIC50 (tHTT): 7.353
- Rating (based on mHTT potency) (mHTT): **** (a pIC50 value between 7.0 and 7.5 is indicated by four stars (****))
- mHTT pIC50 (mHTT): 7.4435

Structure (SMILES): Cc1cc2cc(-c3ccc(N(C)C4CC(C)(C)NC(C)(C)C4)nn3)c(O)cc2c(C#N)n1 [Compound 10, 7-hydroxy-3-methyl-6-(6-(methyl(2,2,6,6-tetramethylpiperidin-4-yl)amino)pyridazin-3-yl)isoquinoline-1-carbonitrile]
- tHTT pIC50 (tHTT): 7.3875
- Rating (based on mHTT potency) (mHTT): **** (a pIC50 value between 7.0 and 7.5 is indicated by four stars (****))
- mHTT pIC50 (mHTT): 7.4395

Structure (SMILES): Cc1cc2cc(O)c(-c3ccc(N(C)C4CC(C)(C)NC(C)(C)C4)nn3)cc2c(C)n1 [Compound 11, 1,3-dimethyl-7-(6-(methyl(2,2,6,6-tetramethylpiperidin-4-yl)amino)pyridazin-3-yl)isoquinolin-6-ol]
- tHTT pIC50 (tHTT): 7.3965
- Rating (based on mHTT potency) (mHTT): **** (a pIC50 value between 7.0 and 7.5 is indicated by four stars (****))
- mHTT pIC50 (mHTT): 7.3875

Structure (SMILES): CC1(C)CC(Nc2ccc(-c3ccc(-n4cccn4)cc3O)nn2)CC(C)(C)N1 [Compound 12, 5-(1H-pyrazol-1-yl)-2-(6-((2,2,6,6-tetramethylpiperidin-4-yl)amino)pyridazin-3-yl)phenol]
- tHTT pIC50 (tHTT): 7.2825
- Rating (based on mHTT potency) (mHTT): **** (a pIC50 value between 7.0 and 7.5 is indicated by four stars (****))
- mHTT pIC50 (mHTT): 7.379

Structure (SMILES): CN(c1nnc(-c2ccc(-c3cn[nH]c3)cc2O)s1)C1CC(C)(C)NC(C)(C)C1 [Compound 13, 2-(5-(methyl(2,2,6,6-tetramethylpiperidin-4-yl)amino)-1,3,4-thiadiazol-2-yl)-5-(1H-pyrazol-4-yl)phenol]
- tHTT pIC50 (tHTT): 7.383
- Rating (based on mHTT potency) (mHTT): **** (a pIC50 value between 7.0 and 7.5 is indicated by four stars (****))
- mHTT pIC50 (mHTT): 7.3545

Structure (SMILES): CN(c1ccc(-c2cc(Cl)c(-c3cn[nH]c3)cc2O)nn1)C1CC(C)(C)NC(C)(C)C1 [Compound 14, 4-chloro-2-(6-(methyl(2,2,6,6-tetramethylpiperidin-4-yl)amino)pyridazin-3-yl)-5-(1H-pyrazol-4-yl)phenol]
- tHTT pIC50 (tHTT): 7.389
- Rating (based on mHTT potency) (mHTT): **** (a pIC50 value between 7.0 and 7.5 is indicated by four stars (****))
- mHTT pIC50 (mHTT): 7.35

Structure (SMILES): Cc1ccc2cc(O)c(-c3ccc(N(C)C4CC(C)(C)NC(C)(C)C4)nn3)cc2n1 [Compound 15, 2-methyl-7-(6-(methyl(2,2,6,6-tetramethylpiperidin-4-yl)amino)pyridazin-3-yl)quinolin-6-ol]
- tHTT pIC50 (tHTT): 7.283
- Rating (based on mHTT potency) (mHTT): **** (a pIC50 value between 7.0 and 7.5 is indicated by four stars (****))
- mHTT pIC50 (mHTT): 7.349

Structure (SMILES): CN(c1nnc(-c2ccc(-c3cnn(C)c3)cc2O)s1)C1CC(C)(C)NC(C)(C)C1 [Compound 16, 2-(5-(methyl(2,2,6,6-tetramethylpiperidin-4-yl)amino)-1,3,4-thiadiazol-2-yl)-5-(1-methyl-1H-pyrazol-4-yl)phenol]
- tHTT pIC50 (tHTT): 7.481
- Rating (based on mHTT potency) (mHTT): **** (a pIC50 value between 7.0 and 7.5 is indicated by four stars (****))
- mHTT pIC50 (mHTT): 7.3285

Structure (SMILES): Cc1cnc2cc(-c3ccc(N(C)C4CC(C)(C)NC(C)(C)C4)nn3)c(O)cc2c1 [Compound 17, 3-methyl-7-(6-(methyl(2,2,6,6-tetramethylpiperidin-4-yl)amino)pyridazin-3-yl)quinolin-6-ol]
- tHTT pIC50 (tHTT): 7.424
- Rating (based on mHTT potency) (mHTT): **** (a pIC50 value between 7.0 and 7.5 is indicated by four stars (****))
- mHTT pIC50 (mHTT): 7.2895
